As usually defined, the IC50 is the concentration at which inhibition is half-maximal. Lower therefore signals greater potency.

Each structure is given as a SMILES string.

The target in the test is LRRK2 G2019S enzyme (Homo sapiens (Human), UniProt Q5S007, G2019S). Nature of the test: LRRK2 G2019S TR-FRET biochemical kinase assay (LRRKtide substrate). The settings on record: Table D-4; 5 nM LRRK2, 134 μM ATP, 60 minute reaction, 23° C. The method in brief: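 TR-FRET phospho-LRRKtide readout (2 nM antibody, 10 mM EDTA, 60 min) after a 60 min, 23 °C kinase reaction. The reaction used 134 μM ATP and 5 nM enzyme in pH 7.5 Tris/MgCl2/EGTA/DTT buffer, with compound and enzyme-substrate mix preincubated for 20 min beforehand.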
Background: Time-resolved FRET reads energy transfer from a long-lived donor to a nearby acceptor.

Sequence of LRRK2 G2019S enzyme (Q5S007 whole entry G2019S): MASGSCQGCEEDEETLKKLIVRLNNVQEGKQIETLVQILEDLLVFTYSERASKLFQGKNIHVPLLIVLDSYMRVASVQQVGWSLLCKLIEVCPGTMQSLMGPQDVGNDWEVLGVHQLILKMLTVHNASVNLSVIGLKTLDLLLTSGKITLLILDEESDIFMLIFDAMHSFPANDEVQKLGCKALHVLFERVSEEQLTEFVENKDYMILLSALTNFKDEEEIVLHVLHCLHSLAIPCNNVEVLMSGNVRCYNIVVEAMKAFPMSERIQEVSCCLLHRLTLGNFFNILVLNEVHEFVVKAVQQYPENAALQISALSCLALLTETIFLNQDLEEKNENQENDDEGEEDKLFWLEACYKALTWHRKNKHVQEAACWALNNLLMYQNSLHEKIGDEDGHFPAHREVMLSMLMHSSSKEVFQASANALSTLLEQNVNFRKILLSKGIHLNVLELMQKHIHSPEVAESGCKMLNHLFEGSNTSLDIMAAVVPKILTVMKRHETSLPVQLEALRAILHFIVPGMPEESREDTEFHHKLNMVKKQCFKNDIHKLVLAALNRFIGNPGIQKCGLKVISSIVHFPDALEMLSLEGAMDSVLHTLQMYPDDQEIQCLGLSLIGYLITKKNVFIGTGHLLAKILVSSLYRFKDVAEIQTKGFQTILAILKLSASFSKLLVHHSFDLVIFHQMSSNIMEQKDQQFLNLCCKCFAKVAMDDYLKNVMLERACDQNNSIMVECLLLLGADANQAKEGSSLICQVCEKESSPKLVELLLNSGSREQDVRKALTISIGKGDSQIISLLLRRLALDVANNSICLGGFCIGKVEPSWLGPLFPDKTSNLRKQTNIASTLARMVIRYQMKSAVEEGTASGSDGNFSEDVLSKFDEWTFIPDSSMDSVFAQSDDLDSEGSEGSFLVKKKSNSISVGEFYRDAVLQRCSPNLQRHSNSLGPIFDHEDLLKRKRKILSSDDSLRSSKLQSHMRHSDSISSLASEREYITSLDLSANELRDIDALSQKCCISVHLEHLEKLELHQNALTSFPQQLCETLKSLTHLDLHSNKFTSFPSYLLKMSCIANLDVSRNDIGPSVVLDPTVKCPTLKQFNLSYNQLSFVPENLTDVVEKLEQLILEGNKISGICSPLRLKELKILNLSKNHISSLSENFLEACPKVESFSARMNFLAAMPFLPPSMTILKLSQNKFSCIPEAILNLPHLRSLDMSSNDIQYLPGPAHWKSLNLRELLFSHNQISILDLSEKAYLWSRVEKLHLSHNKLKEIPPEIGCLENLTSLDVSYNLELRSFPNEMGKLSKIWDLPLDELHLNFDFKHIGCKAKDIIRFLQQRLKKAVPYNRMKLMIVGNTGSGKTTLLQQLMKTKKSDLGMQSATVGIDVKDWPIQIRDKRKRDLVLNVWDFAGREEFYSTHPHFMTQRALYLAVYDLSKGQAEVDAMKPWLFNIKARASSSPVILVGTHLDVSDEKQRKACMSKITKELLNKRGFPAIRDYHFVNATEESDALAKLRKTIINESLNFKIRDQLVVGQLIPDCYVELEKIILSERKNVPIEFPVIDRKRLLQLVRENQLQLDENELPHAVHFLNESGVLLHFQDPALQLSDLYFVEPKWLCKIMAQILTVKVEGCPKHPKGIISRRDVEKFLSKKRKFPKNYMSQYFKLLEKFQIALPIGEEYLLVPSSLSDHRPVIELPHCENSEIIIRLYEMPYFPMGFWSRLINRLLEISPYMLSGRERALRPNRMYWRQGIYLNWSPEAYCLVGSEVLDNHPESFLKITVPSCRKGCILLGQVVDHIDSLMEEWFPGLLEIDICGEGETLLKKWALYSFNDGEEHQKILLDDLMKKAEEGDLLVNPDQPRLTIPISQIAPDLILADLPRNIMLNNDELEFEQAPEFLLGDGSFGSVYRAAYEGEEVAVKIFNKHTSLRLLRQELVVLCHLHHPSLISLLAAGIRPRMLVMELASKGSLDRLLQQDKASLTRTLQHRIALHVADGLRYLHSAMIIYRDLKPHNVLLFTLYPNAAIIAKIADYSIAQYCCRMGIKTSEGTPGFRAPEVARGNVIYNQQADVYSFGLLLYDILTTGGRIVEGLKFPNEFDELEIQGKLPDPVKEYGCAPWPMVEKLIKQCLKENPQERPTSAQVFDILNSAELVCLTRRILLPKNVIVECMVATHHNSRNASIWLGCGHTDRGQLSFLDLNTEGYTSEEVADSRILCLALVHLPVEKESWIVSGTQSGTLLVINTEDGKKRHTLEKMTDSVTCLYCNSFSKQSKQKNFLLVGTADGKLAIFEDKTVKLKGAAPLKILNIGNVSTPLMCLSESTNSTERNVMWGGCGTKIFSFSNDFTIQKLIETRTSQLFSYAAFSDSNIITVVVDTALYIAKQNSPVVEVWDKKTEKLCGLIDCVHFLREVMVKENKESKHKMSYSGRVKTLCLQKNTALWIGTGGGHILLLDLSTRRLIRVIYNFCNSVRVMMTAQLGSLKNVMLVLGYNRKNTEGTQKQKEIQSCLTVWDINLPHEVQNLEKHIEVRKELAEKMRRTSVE

Take `CNc1nc(Nc2cn([C@H]3C[C@H](COC(F)F)C3)nc2C)ncc1C(F)(F)F` [Compound D-32, trans-N2-[1-[3-(difluoromethoxymethyl)cyclobutyl]-3-methyl-pyrazol-4-yl]-5-(difluoromethyl-fluoranyl)-N4-methyl-pyrimidine-2,4-diamine]: the half-inhibitory concentration (IC50) was less than 30 nM. The result for `CNc1nc(Nc2cnn(CC3(CC#N)CC3)c2Cl)ncc1C(F)(F)F` [Compound D-33, 2-(1-((5-chloro-4-((4-(methylamino)-5-(trifluoromethyl)pyrimidin-2-yl)amino)-1H-pyrazol-1-yl)methyl)cyclopropyl)acetonitrile] reads less than 30 nM; that for `CNc1nc(Nc2cn(C3CCCn4ccnc43)nc2C)ncc1C(F)(F)F` [Compound D-34, N^4-methyl-N^2-(3-methyl-1-(5,6,7,8-tetrahydroimidazo[1,2-a]pyridin-8-yl)-1H-pyrazol-4-yl)-5-(trifluoromethyl)pyrimidine-2,4-diamine], less than 30 nM. The result for `CNc1nc(Nc2cn(C3CCc4c(C)noc43)nc2C)ncc1C(F)(F)F` [Compound D-35, N^4-methyl-N^2-(3-methyl-1-(3-methyl-5,6-dihydro-4H-cyclopenta[d]isoxazol-6-yl)-1H-pyrazol-4-yl)-5-(trifluoromethyl)pyrimidine-2,4-diamine] reads less than 30 nM; that for `CNc1nc(Nc2cn(C3CCn4nccc43)nc2C)ncc1C(F)(F)F` [Compound D-36, N^2-(1-(5,6-dihydro-4H-pyrrolo[1,2-b]pyrazol-4-yl)-3-methyl-1H-pyrazol-4-yl)-N^4-methyl-5-(trifluoromethyl)pyrimidine-2,4-diamine], more than 60 nM. As to `CNc1nc(Nc2cn(C3CCc4c3cnn4C)nc2C)ncc1C(F)(F)F` [Compound D-37, N^4-methyl-N^2-(3-methyl-1-(1-methyl-1,4,5,6-tetrahydrocyclopenta[c]pyrazol-4-yl)-1H-pyrazol-4-yl)-5-(trifluoromethyl)pyrimidine-2,4-diamine], the concentration for half-maximal inhibition (IC50) was 30 to 60 nM. In the case of `CCSc1nc(Nc2cn(C(C)(C)C#N)nc2C)ncc1Cl` [Compound D-44, 2-[4-[(5-chloro-4-ethylsulfanyl-pyrimidin-2-yl)amino]-3-methyl-pyrazol-1-yl]-2-methyl-propanenitrile], the half-inhibitory concentration (IC50) was less than 30 nM.

Compound `CCSc1nc(Nc2cn(C(C)(C)C#N)nc2C)ncc1C(F)(F)F` [Compound D-45, 2-[4-[[4-ethylsulfanyl-5-(trifluoromethyl)pyrimidin-2-yl]amino]-3-methyl-pyrazol-1-yl]-2-methyl-propanenitrile] yielded a 50% inhibitory concentration (IC50) of less than 30 nM. The result for `CSc1nc(Nc2cn(C(C)(C)C#N)nc2C)ncc1C(F)(F)F` [Compound D-46, 2-methyl-2-[3-methyl-4-[[4-methylsulfanyl-5-(trifluoromethyl)pyrimidin-2-yl]amino]pyrazol-1-yl]propanenitrile] reads 30 to 60 nM; that for `CCSc1nc(Nc2cn(C(C)(C)C#N)nc2C)ncc1C#N` [Compound D-47, 2-[[1-(1-cyano-1-methyl-ethyl)-3-methyl-pyrazol-4-yl]amino]-4-ethylsulfanyl-pyrimidine-5-carbonitrile], more than 60 nM; that for `CNc1nc(Nc2cnn(C(C)COC(F)F)c2C)ncc1C(F)(F)F` [Compound D-48, N2-[1-[2-(difluoromethoxy)-1-methyl-ethyl]-5-methyl-pyrazol-4-yl]-5-(difluoromethyl-fluoranyl)-N4-methyl-pyrimidine-2,4-diamine], less than 30 nM. The result for `CNc1nc(Nc2cnn([C@H]3C[C@@H](n4cccn4)C3)c2C)ncc1C(F)(F)F` [Compound D-49, cis-N4-methyl-N2-[5-methyl-1-(3-pyrazol-1-ylcyclobutyl)pyrazol-4-yl]-5-(trifluoromethyl)pyrimidine-2,4-diamine] reads less than 30 nM; that for `CNc1nc(Nc2cnn([C@H]3C[C@@H](S(C)(=O)=O)C3)c2C)ncc1C(F)(F)F` [Compound D-50, cis-N4-methyl-N2-[5-methyl-1-(3-methylsulfonylcyclobutyl)pyrazol-4-yl]-5-(trifluoromethyl)pyrimidine-2,4-diamine], less than 30 nM.

The compound `CNc1nc(Nc2cnn(C3CCc4c3cnn4C)c2C)ncc1C(F)(F)F` [Compound D-56] showed an IC50 of less than 30 nM.

In turn, `CCNc1nc(Nc2cn(C3CCc4ncsc43)nc2C)ncc1C(F)(F)F` [Compound D-57] gave an IC50 of less than 30 nM.

Compound `CCNc1nc(Nc2cnn([C@H]3C[C@H](n4nccn4)C3)c2C)ncc1C(F)(F)F` [Compound D-58] gave an IC50 of less than 30 nM. The result for `CCNc1nc(Nc2cnn([C@H]3C[C@@H](n4cncn4)C3)c2C)ncc1C(F)(F)F` [Compound D-59] reads less than 30 nM; that for `CCNc1nc(Nc2cnn(C3Cc4nccn4C3)c2C)ncc1C(F)(F)F` [Compound D-60], less than 30 nM; that for `CCNc1nc(Nc2cnn([C@H]3C[C@H](n4ncnc4C(F)(F)F)C3)c2C)ncc1C(F)(F)F` [Compound D-61], less than 30 nM. Take `CCNc1nc(Nc2cn(C3CCn4ccnc43)nc2Cl)ncc1C(F)(F)F` [Compound D-62]: the IC50 was more than 60 nM. `Cc1c(Nc2ncc(C(F)(F)F)c(NCC(F)F)n2)cnn1[C@H]1C[C@@H](n2cccn2)C1` [Compound D-63] returned an IC50 of less than 30 nM. The result for `CNc1nc(Nc2cnn([C@H]3C[C@H](n4cc(F)cn4)C3)c2C)ncc1C(F)(F)F` [Compound D-64] reads less than 30 nM; that for `CCNc1nc(Nc2cnn(C3CCn4nccc43)c2C)ncc1C(F)(F)F` [Compound D-65], less than 30 nM; that for `CCNc1nc(Nc2cn([C@H]3C[C@H](c4cocn4)C3)nc2C)ncc1C(F)(F)F` [Compound D-66], less than 30 nM. The result for `CNc1nc(Nc2cn(C3CCn4cncc43)nc2C)ncc1C(F)(F)F` [Compound D-67] reads more than 60 nM; that for `CCOc1nc(Nc2cn(C3CCn4ccnc43)nc2C)ncc1C(F)(F)F` [Compound D-68], more than 60 nM.

`CNc1nc(Nc2cn(C3CCC(n4ccnn4)C3)nc2C)ncc1C(F)(F)F` [Compound D-69] had an IC50 of less than 30 nM. `CNc1nc(Nc2cnn(C(C)COC(F)F)c2C)ncc1C(F)(F)F` [Compound D-70] came in with an IC50 of less than 30 nM.

For `CNc1nc(Nc2cnn([C@H]3C[C@H](n4cccn4)C3)c2C)ncc1C(F)(F)F` [Compound D-71], the IC50 was less than 30 nM.

With `CNc1nc(Nc2cn(C3(c4ncnn4C)CCC3)nc2C)ncc1C(F)(F)F` [Compound D-72], the IC50 is more than 60 nM. The result for `CCNc1nc(Nc2cnn([C@H]3C[C@H](n4ccnn4)C3)c2C)ncc1C(F)(F)F` [Compound D-73] reads less than 30 nM. With `CCNc1nc(Nc2cn(C3Cc4nccn4C3)nc2C)ncc1C(F)(F)F` [Compound D-74], the IC50 was less than 30 nM. `Cc1c(Nc2ncc(C(F)(F)F)c(NCC(F)F)n2)cnn1[C@H]1C[C@H](n2nccn2)C1` [Compound D-75] yielded a 50% inhibitory concentration (IC50) of less than 30 nM. The result for `CCNC(=O)C(F)(F)n1cc(Nc2ncc(C(F)(F)F)c(NCC)n2)c(C)n1` [Compound D-76] reads less than 30 nM; that for `CNc1nc(Nc2cnn([C@H]3C[C@@H](n4nccn4)C3)c2C)ncc1C(F)(F)F` [Compound D-77], less than 30 nM; that for `CCNc1nc(Nc2cnn(C3CCCn4ccnc43)c2C)ncc1C(F)(F)F` [Compound D-78], more than 60 nM. The result for `CCNc1nc(Nc2cn(C3CCc4c(C)noc43)nc2C)ncc1C(F)(F)F` [Compound D-79] reads less than 30 nM.

For the origin of these results see patent US11214565B2, “Compound, compositions, and methods” (Denali Therapeutics Inc., priority 2015, dated 2022).
